The target of test [1] is T1, MRCKβ (Homo sapiens, UniProt Q9Y5S2).
T1 construct: The kinase domains of MRCKβ (1–473), ROCK1 (1–535) or ROCK2 (1–532) were gene synthesized; expressed in transfected cells; host or cells: MDA-MB-231 D3H2LN-Luc Tet3G cells, pTRE3G-MRCKβ (1–473)
T1 sequence (Q9Y5S2 1-473): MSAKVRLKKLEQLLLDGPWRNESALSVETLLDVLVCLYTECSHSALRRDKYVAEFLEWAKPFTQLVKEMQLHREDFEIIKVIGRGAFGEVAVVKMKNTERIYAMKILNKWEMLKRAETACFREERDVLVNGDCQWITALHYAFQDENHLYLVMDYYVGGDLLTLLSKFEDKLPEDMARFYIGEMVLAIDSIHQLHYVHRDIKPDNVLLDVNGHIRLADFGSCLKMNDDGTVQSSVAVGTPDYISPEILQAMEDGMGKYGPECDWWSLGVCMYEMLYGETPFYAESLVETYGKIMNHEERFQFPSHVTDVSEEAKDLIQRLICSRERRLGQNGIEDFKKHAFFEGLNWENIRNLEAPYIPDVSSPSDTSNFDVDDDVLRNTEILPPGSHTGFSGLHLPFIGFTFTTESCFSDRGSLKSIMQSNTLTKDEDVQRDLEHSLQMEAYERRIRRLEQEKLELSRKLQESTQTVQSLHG
Nature of the test: MLC phosphorylation in MDA-MB-231 cells expressing doxycycline-induced MRCKβ kinase domain (quantitative western blot). Format: cell-based. The procedure:
(A) MDA-MB-231 breast cancer cells expressing doxycycline inducible ROCK1, ROCK2 or MRCKβ kinase domains were established as indicated. Following treatment with doxycycline for 18 hours to induce expression, cell lysates were western blotted with antibodies as indicated.
MDA-MB-231 D3H2LN-Luc cells (Caliper LifeScience) were grown in MEM/EBSS (Hyclone) supplemented with 10% fetal bovine serum (FBS) (Gibco), 1 mM Sodium Pyruvate (Sigma) 2 mM L-glutamine (Gibco), 1× MEM non-essential amino acids (Gibco) plus penicillin-streptomycin (10 Units/ml and 10 μg/ml respectively) at 37°C in 5% CO2 in a humidified incubator. MDA-MB-231 D3H2LN-Luc TetOn MRCKβ, ROCK1 and ROCK2 selective cell lines were grown in the same media with 10% FBS replaced with 10% Tet System Approved FBS (Clontech).
The kinase domains of MRCKβ (1–473), ROCK1 (1–535) or ROCK2 (1–532) were gene synthesized (Genscript) and subcloned into pTRE3G (Clontech). MDA-MB-231 D3H2LN-Luc Tet3G cells were co-transfected with pTRE3G-MRCKβ (1–473), pTRE3G-ROCK1 (1–535) or pTRE3G-ROCK2 (1–532), together with a linear Pur^r-selection marker using Xfect transfection reagent according to manufacturer’s instructions. […] Each clone was treated with or without doxycycline (1 μg/ml) for 24 hours and kinase domain expression and activity determined by western blotting. […]
(A western blot detects proteins with antibodies after separation by electrophoresis.)

Test [2] concerns SCC12 cells. Nature of the test: Organotypic collagen invasion of SCC12 cells. Format: cell-based, human. The settings on record: 2 μM, ten days. The protocol:
All results are shown as mean ± standard error of n = 3 independent replicates. […] Readings were compared to the Alamar Blue metabolism in DMSO treated cells that were used as the viability standard of 100% for each replicate experiment. […] (F) Number of invading cells was determined in 5 random fields for each condition for each separate replicate experiment. All results are shown as mean ± standard error of n ≥ 3 independent replicates.
SCC12 invasion assays were performed essentially as described in [12]. HN-CAF cells were grown for 5 days in a Matrigel-collagen gel, covered with DMEM + 10%FBS medium, and allowed to remodel the matrix. The gel consisted of: 280 μL of DMEM + 10% FBS, 100 μL FBS, 20 μL 1 M Hepes pH 7.5 and approximately 200 μL of Matrigel (BD Biosciences, 354234), 400 μL of collagen type 1 (BD Biosciences, 354249) and 5×10^5 HN-CAF cells. Puromycin was subsequently added to the medium at 10 μg/ml for 3 days to remove HN-CAF cells. The gels were washed in SCC medium 3 times for 2 hours and SCC12 cells were plated on the surface of the gel and left to adhere overnight. […] The gels were fixed overnight in 4% PFA and 1% glutaraldehyde in PBS, washed in PBS and processed for histology.

Test [3] relates to MLC phosphorylation in MDA-MB-231 cells. Nature of the test: MLC phosphorylation in parental MDA-MB-231 breast cancer cells (quantitative western blot). The settings on record: for EC50: parental MDA-MB-231, 30 minutes treatment, read-out: EC50, inhibition of MLC phosphorylation; for pMLC on western blots at higher concentrations: parental MDA-MB-231, higher concentrations. The test is classed as cell-based, human. The protocol: All results are shown as mean ± standard error of n = 3 independent replicates. […] After fixation and permeabilization, cells were stained with phalloidin to visualize filamentous actin structures and pMLC (S19) primary antibody as indicated.
Cell lysates were prepared as described previously. For pMLC western blots, cells were lysed in a 1% (w/v) SDS, 50 mM Tris pH 7.5 buffer and lysates were passed through QIAshredder columns (Qiagen, 79654). Alternatively, for pMLC western blots lysates were prepared in lysis buffer with 50 mM Tris (pH7.5), 0.5% (w/v) SDS, supplemented with Complete Protease and PhosSTOP inhibitors (Roche). Whole cell lysates were separated by SDS-PAGE, transferred to Protran nitrocellulose membranes (Whatman), probed with primary antibodies and appropriate IR dye-conjugated secondary antibodies. Blots were visualized using a Licor Odyssey according to manufacturer’s instructions. Antibodies used in this study were: MRCKα (611584) from BD Transduction Laboratories; MRCKβ (H00009578-A01) from Abnova; MRCKα/β (MANDM1 6G8) from Glenn Morris (Centre for Inherited Neuromuscular Disease, Oswestry UK); MRCL3/MRLC2/MYL9 (sc-28329) from Santa Cruz Biotechnology; pMLC2 Thr18/Ser19 (3674) from Cell Signaling Technology. ROCK1/2 (07–1458) from Millipore; TetR (Clone 9G9; 631132) from Clontech; α-Tubulin (TU-02; sc-8035) from Santa Cruz Biotechnology; ERK2 from Chris Marshall (Institute of Cancer Research, London UK). Secondary antibodies used were: goat anti-mouse IgG Dylight 800 from Thermo Scientific (35521), goat anti rabbit IgG AlexaFluor 680 from Invitrogen (A12076), goat anti-rabbit IgG IR Dye 800 CW (926–32211) and goat anti-mouse IgG IR Dye 680 (926–68020) were from LI-COR Biosciences.

SMILES strings stand for the structures. Where two headings read alike, the source gives them in different places. Bounds are passed on as bounds.

One may read the EC50 as the concentration at which the effect is half-maximal. Take `O=C(Nc1cn[nH]c1-c1ccccn1)c1nn(C2CCNCC2)cc1Cl` [BDP5290, 4-chloro-1-(4-piperidyl)-N-[5-(2-pyridyl)-1H-pyrazol-4-yl]pyrazole-3-carboxamide]: the “inhibition of MLC phosphorylation induced by MRCKβ” value in test [1] (3 μM) is given as “completely inhibited”. Also, the “SCC12 invasion into three dimensional collagen matrix” value in test [2] is given as “profound effect”. Moreover, the EC50 in test [3] (Homo sapiens, 0.5 h) came out at 316 nM. In addition, the “pMLC on western blots at higher concentrations” value in test [3] was “reduced pMLC to undetectable levels”.

For the compound `C[C@@H](N)[C@H]1CC[C@H](C(=O)Nc2ccncc2)CC1` [Y27632, reference compound], the “inhibition of MRCKβ activity (MLC phosphorylation)” value in test [1] (highest 30 μM concentration) is not above 50%. In addition, the “SCC12 invasion into three dimensional collagen matrix” value in test [2] is reported as “did not significantly affect”. Also, in test [3], the EC50 was 407 nM and the “pMLC on western blots at higher concentrations” value is reported as “unable to completely inhibit pMLC”.

(Values after PMC4195943, “A novel small-molecule MRCK inhibitor blocks cancer cell invasion” (Cell Communication and Signaling : CCS, 2014).)
